Where two headings read alike, the source gives them in different places.

From patent US11066414B2, “Cot modulators and methods of use thereof” (Gilead Sciences, Inc., priority 2015, dated 2021) come the findings set out here.

The subject of test [1] is TNFα. As to the kind of experiment: Cot Monocyte TNFα Cell Based Assay.
Test [2] concerns the target Human Cot (Homo sapiens (Human), UniProt P41279). Kind of test: High Throughput Cot Biochemical Assay.
[3] abbreviates: Homo sapiens, Monocyte, read-out: EC50 TNF, LPS-stimulated human monocytes, TNFα.
The mark [4] stands for this setting: IC50 HTRF, Cot HTRF (TR-FRET) biochemical assay.
The mark [5] stands for this setting: read-out: EC50 TNF, LPS-stimulated human monocytes, TNFα.
Setting [6] is: read-out: IC50 HTRF, Cot HTRF (TR-FRET) biochemical assay.
The mark [7] stands for this setting: Homo sapiens, Monocyte, read-out: EC50 TNF, LPS-stimulated human monocytes, TNFα TR-FRET.
[8] abbreviates: IC50 HTRF, Cot HTRF (TR-FRET KinEASE) biochemical assay, 400 μM ATP.

Chain of Human Cot (P41279 30-397): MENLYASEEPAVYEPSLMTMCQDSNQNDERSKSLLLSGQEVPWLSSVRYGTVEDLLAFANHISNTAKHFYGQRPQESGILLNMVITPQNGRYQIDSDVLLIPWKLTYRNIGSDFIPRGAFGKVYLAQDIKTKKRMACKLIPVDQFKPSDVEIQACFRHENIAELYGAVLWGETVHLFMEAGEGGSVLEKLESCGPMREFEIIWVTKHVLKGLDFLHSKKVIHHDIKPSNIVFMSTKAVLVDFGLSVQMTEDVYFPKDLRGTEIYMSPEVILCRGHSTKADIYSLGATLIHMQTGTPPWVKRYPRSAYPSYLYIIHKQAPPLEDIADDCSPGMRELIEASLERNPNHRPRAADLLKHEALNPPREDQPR

For `Cc1nc(F)ccc1[C@H](Nc1cc(Cl)c2ncc(C#N)c(NCC(C)(C)C)c2c1)c1cn(C2(CF)CC2)nn1` [Example 495, (S)-8-chloro-6-(((6-fluoro-2-methylpyridin-3-yl)(1-(1-(fluoromethyl)cyclopropyl)-1H-1,2,3-triazol-4-yl)methyl)amino)-4-(neopentylamino)quinoline-3-carbonitrile], the concentration giving a half-maximal response (EC50) in test [1] (setting [3]) was 50 nM. Also, the IC50 in test [2] (setting [4]) was found to be 3 nM.
The corresponding values for `[2H][C@](Nc1cc(Cl)c2ncc(C#N)c(N[C@H](CC)c3ccccc3)c2c1)(c1cccnc1)c1cn(C2CC2)nn1` [Example 159, 8-chloro-6-(((S)-(1-cyclopropyl-1H-1,2,3-triazol-4-yl)(pyridin-3-yl)methyl-d)amino)-4-(((R)-1-phenylpropyl)amino)quinoline-3-carbonitrile] are 95 nM and 2 nM.
Turning to `Cc1ccc([C@H](Nc2cc(C#N)c3ncc(C#N)c(NCC(C)(C)C)c3c2)c2cn(C3(C(F)(F)F)CC3)nn2)c(C)n1` [Example 689, (S)-6-(((2,6-dimethylpyridin-3-yl)(1-(1′-(trifluoromethyl)cyclopropyl)-1H-1,2,3-triazol-4-yl)methyl)amino)-4-(neopentylamino)quinoline-3,8-dicarbonitrile], the EC50 in test [1] (setting [5]) was 81 nM. Besides, the IC50 in test [2] (setting [6]) came to 9 nM.
As to `CC(C)(C)CNc1c(C#N)cnc2c(C#N)cc(N[C@H](c3cn(C4(C(F)(F)F)CC4)nn3)c3ccc(C#N)c4ncccc34)cc12` [Example 910, (S)-6-(((8-cyanoquinolin-5-yl)(1-(1-(trifluoromethyl)cyclopropyl)-1H-1,2,3-triazol-4-yl)methyl)amino)-4-(neopentylamino)quinoline-3,8-dicarbonitrile], in test [1] (setting [7]), the EC50 was determined as 148 nM. Further, the IC50 in test [2] (setting [8]) is 5 nM.
In the case of `CC(C)(C)CNc1c(C#N)cnc2c(Cl)cc(N[C@H](c3cn(C4CC4)nn3)c3csc4cnccc34)cc12` [Example 738, (S)-8-chloro-6-(((1-cyclopropyl-1H-1,2,3-triazol-4-yl)(thieno[2,3-c]pyridin-3-yl)methyl)amino)-4-(neopentylamino)quinoline-3-carbonitrile], in test [1] (setting [3]), the concentration for a half-maximal effect (EC50) amounted to 40 nM. It took 2 nM to reach half-maximal inhibition in test [2] (setting [4]) (IC50).
The matching figures for `Cc1ccc([C@H](Nc2cc(Cl)c3ncc(C#N)c(NCC(C)(C)C)c3c2)c2cn(C3(C(F)F)CC3)nn2)c(C)n1` [Example 717, (S)-8-chloro-6-(((1-(1-(difluoromethyl)cyclopropyl)-1H-1,2,3-triazol-4-yl)(2,6-dimethylpyridin-3-yl)methyl)amino)-4-(neopentylamino)quinoline-3-carbonitrile]: 100 nM and 8 nM.
With `Cc1nc(F)ccc1[C@H](Nc1cc(C#N)c2ncc(C#N)c(NCC(C)(C)C)c2c1)c1cn(C2(C(C)C)CC2)nn1` [Example 851, (S)-6-(((6-fluoro-2-methylpyridin-3-yl)(1-(1-isopropylcyclopropyl)-1H-1,2,3-triazol-4-yl)methyl)amino)-4-(neopentylamino)quinoline-3,8-dicarbonitrile], in test [1] (setting [7]), the half-maximal effective concentration (EC50) amounted to 21 nM. Also, in test [2] (setting [8]), the IC50 is 3 nM.
As for `CC[C@@H](Nc1c(C#N)cnc2c(Cl)cc(N[C@H](c3cn(C4CCN(C(C)(C)C)CC4)nn3)c3cccnc3C)cc12)c1ccccc1` [Example 221, 6-(((S)-(1-(1-(tert-butyl)piperidin-4-yl)-1H-1,2,3-triazol-4-yl)(2-methylpyridin-3-yl)methyl)amino)-8-chloro-4-(((R)-1-phenylpropyl)amino)quinoline-3-carbonitrile], the half-maximal effective concentration (EC50) in test [1] (setting [3]) amounted to 28 nM. Besides, in test [2] (setting [4]), the IC50 was 2 nM.
The matching figures for `C[C@@H](Nc1c(C#N)cnc2c(Cl)cc(N[C@@H](c3cccnc3)c3c[nH]nn3)cc12)c1ccccc1` [Example 255, 8-chloro-4-(((R)-1-phenylethyl)amino)-6-(((S)-pyridin-3-yl(1H-1,2,3-triazol-4-yl)methyl)amino)quinoline-3-carbonitrile]: 766 nM and 10 nM.
Take `[2H]C([2H])([2H])C([2H])([2H])[C@@]([2H])(Nc1c(C#N)cnc2c(Cl)cc(N[C@@]([2H])(c3ccc(F)nc3)c3cn(C4CC4)nn3)cc12)c1ccccc1` [Example 109, 8-chloro-6-(((S)-(1-cyclopropyl-1H-1,2,3-triazol-4-yl)(6-fluoropyridin-3-yl)methyl-d)amino)-4-(((R)-1-phenylpropyl-1,2,2,3,3,3-d6)amino)quinoline-3-carbonitrile]: the EC50 in test [1] (setting [3]) amounted to 54 nM. In test [2] (setting [4]), this compound showed a half-inhibitory concentration (IC50) of 2 nM.
As to `Cc1nc(F)ccc1[C@H](Nc1cc(Cl)c2ncc(C#N)c(N[C@H]3CCOCC3(C)C)c2c1)c1cn(C2(C(F)F)CC2)nn1` [Example 540, 8-chloro-6-(((S)-(1-(1-(difluoromethyl)-cyclopropyl)-1H-1,2,3-triazol-4-yl)(6-fluoro-2-methylpyridin-3-yl)methyl)-amino)-4-(((S)-3,3-dimethyltetrahydro-2H-pyran-4-yl)amino)quinoline-3-carbonitrile], the EC50 in test [1] (setting [3]) stood at 760 nM. In test [2] (setting [4]), this compound displayed an IC50 of 50 nM.
The matching figures for `COCCn1cc([C@@H](Nc2cc(Cl)c3ncc(C#N)c(Nc4ccc(F)c(Cl)c4)c3c2)c2cscn2)nn1` [Example 358, (S)-8-chloro-4-((3-chloro-4-fluorophenyl)amino)-6-(((1-(2-methoxyethyl)-1H-1,2,3-triazol-4-yl)(thiazol-4-yl)methyl)amino)-quinoline-3-carbonitrile]: 130 nM and 3 nM.
As for `Cc1nc(F)ccc1[C@H](Nc1cc(Cl)c2ncc(C#N)c(NCC(C)(C)C)c2c1)c1nnn([C@@H](C)CF)c1F` [Example 952, 8-chloro-6-(((S)-(5-fluoro-1-((S)-1-fluoropropan-2-yl)-1H-1,2,3-triazol-4-yl)(6-fluoro-2-methylpyridin-3-yl)methyl)amino)-4-(neopentylamino)quinoline-3-carbonitrile], in test [1] (setting [7]), the EC50 worked out at 36 nM. In test [2] (setting [8]), this compound displayed an IC50 of 4 nM.
Consider `Cc1nc(F)ccc1[C@@H](Nc1cc(Cl)c2ncc(C#N)c(NC3[C@H]4CCC[C@H]34)c2c1)c1cn(C2(C(F)(F)F)CC2)nn1` (stereo partly drawn) [Example 607, 4-(((lR,5S)-bicyclo[3.1.0]hexan-6-yl)amino)-8-chloro-6-(((S)-(6-fluoro-2-methylpyridin-3-yl)(1-(1-(trifluoromethyl)cyclopropyl)-1H-1,2,3-triazol-4-yl)methyl)amino)quinoline-3-carbonitrile], for which, in test [1] (setting [5]), the EC50 stood at 225 nM. Moreover, the concentration for half-maximal inhibition (IC50) in test [2] (setting [6]) was 21 nM.
As to `CC(C)(C)CNc1c(C#N)cnc2c(Cl)cc(N[C@H](c3cn(C4(C(F)(F)F)CC4)nn3)c3csc4cnccc34)cc12` [Example 741, (S)-8-chloro-4-(neopentylamino)-6-((thieno[2,3-c]pyridin-3-yl(1-(1-(trifluoromethyl)cyclopropyl)-1H-1,2,3-triazol-4-yl)methyl)amino)quinoline-3-carbonitrile], the EC50 in test [1] (setting [3]) was 120 nM. Moreover, in test [2] (setting [4]), it took 6 nM to reach half-maximal inhibition (IC50).
The corresponding values for `CCN1Cc2ccc([C@H](Nc3cc(Cl)c4ncc(C#N)c(Nc5ccc(F)c(Cl)c5)c4c3)c3c[nH]nn3)cc2C1` [Example 53, (S)-8-chloro-4-((3-chloro-4-fluorophenyl)amino)-6-(((2-ethylisoindolin-5-yl)(1H-1,2,3-triazol-4-yl)methyl)-amino)quinoline-3-carbonitrile] are 4020 nM and 81 nM.

A word on the EC50: it is the concentration that produces a half-maximal response. By IC50 is commonly meant the concentration that gives 50% inhibition.
